Values quoted from earlier work as cited in patent US8277782B2, “Topical oral care compositions comprising host response modulating agents” (The Procter & Gamble Company, priority 2000, dated 2012).

System: alveolar bone
Conditions: non steroidal anti-inflammatory drugs, cyclo-oxygenase inhibitors; prior knowledge

SMILES	resorption of alveolar bone
CC(C(=O)O)c1ccc(-c2ccccc2)c(F)c1 (centres unmarked) [flurbiprofen]	markedly reduce
COc1ccc2c(c1)c(CC(=O)O)c(C)n2C(=O)c1ccc(Cl)cc1 [indomethacin]	markedly reduce
